In data set [1] the target is B-Raf (Homo sapiens (Human), UniProt P15056). Briefly: B-Raf kinase activity biochemical assay (AlphaScreen, biotin-MEK1 phosphorylation). The note with it: B-Raf. Here is the method: (§1) Compounds to be tested are diluted in dimethyl sulfoxide to a concentration of 0.1 mM. These are serially diluted 15 μL into 30 μL of dimethyl sulfoxide seven times in 96 well plates for a total of 8 dilution points, and for each dilution point 1 μL is added to a well of an assay plate. […] The reaction is started with addition of 10 μL of 200 μM ATP (i.e. final 100 μM ATP). After incubation of the kinase reaction for 45 minutes at room temperature, 5 μL/well of Stop Solution is added (25 mM Hepes pH 7.5, 100 mM EDTA, 0.01% BSA with donor beads (Streptavidin coated beads, Perkin Elmer), acceptor beads (Protein A coated, Perkin Elmer), and anti phosphor MEK1/2 antibody (CellSignal), each at final concentration 10 μg/mL). The plates are incubated for 3 hours at room temperature and read on Envision reader (Perkin Elmer). […] The signal vs. compound concentration is used to determine the IC50.
Chain of B-Raf (Homo sapiens (Human), UniProt P15056) (P15056 whole entry): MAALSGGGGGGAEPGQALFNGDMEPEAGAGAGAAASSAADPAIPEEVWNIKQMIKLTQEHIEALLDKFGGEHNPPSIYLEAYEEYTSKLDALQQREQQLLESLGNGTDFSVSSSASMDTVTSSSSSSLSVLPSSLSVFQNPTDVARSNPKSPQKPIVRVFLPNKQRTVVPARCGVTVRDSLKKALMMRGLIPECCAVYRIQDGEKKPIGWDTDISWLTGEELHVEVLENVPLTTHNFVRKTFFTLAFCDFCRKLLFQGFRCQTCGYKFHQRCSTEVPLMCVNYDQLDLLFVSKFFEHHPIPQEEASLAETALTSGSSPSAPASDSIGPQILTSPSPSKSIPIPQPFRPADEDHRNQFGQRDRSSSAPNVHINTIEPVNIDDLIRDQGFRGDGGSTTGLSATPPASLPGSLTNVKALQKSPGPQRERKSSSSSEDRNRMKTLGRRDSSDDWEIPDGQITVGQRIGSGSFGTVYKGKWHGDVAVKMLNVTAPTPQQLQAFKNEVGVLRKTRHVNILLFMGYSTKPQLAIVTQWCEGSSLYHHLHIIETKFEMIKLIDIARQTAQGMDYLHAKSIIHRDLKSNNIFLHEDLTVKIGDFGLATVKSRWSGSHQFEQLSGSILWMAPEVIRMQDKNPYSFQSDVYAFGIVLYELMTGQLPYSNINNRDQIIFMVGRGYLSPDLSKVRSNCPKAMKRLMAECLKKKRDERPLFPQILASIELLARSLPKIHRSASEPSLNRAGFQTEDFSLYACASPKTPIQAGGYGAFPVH

The test system of data set [2] is B-Raf. Described as above. To be noted: for Biochemical activity ratio B/V600E: ratio of IC50 B-Raf / B-Raf V600E; for Biochemical activity ratio B/C: ratio of IC50 B-Raf / c-Raf-1. Here is the method:
as §1

Another data set has as its target B-Raf V600E (Homo sapiens (Human), UniProt P15056, V600E). As to the kind of experiment: B-Raf V600E kinase activity biochemical assay (AlphaScreen, biotin-MEK1 phosphorylation). The note with it: for IC50: B-Raf V600E; for Biochemical activity ratio V600E/C: ratio of IC50 B-Raf V600E / c-Raf-1. As to the method: as §1
(Alpha assays give light when donor and acceptor beads are brought close together.)

Another data set addresses c-Raf-1 (Homo sapiens, UniProt P04049). As to the kind of experiment: c-Raf-1 kinase activity biochemical assay (AlphaScreen, biotin-MEK1 phosphorylation). Here is the method: as §1
Data set [3] in a line: Relative solubility by turbidity threshold concentration in aqueous buffers (pH 1.5, 4.5, 6.8, 7.4). It is filed as physicochemical. The note with it: for turbidity threshold (L, M, H) 1.4: pH 1.4 [sic] (method: SGF pH 1.5); for turbidity threshold (L, M, H) 4.5: pH 4.5 (SIF); for turbidity threshold (L, M, H) 6.8: pH 6.8 (SIF); for turbidity threshold (L, M, H) 7.4: pH 7.4 (HEPES). As to the method: As an indication of relative solubility, the turbidity of compounds in aqueous solutions is assessed. To assess possible compound properties in different physiological compartments, such as stomach, intestine, and blood, a series of aqueous buffers with varying pH is used. Thus each compound is diluted into four different physiologically relevant buffers and solution turbidity is measured by spectrophotometry.
Compounds are dissolved at a concentration of 25 mM in dimethyl sulfoxide, then serially diluted 1:1 into a 96 well plate, diluting 10 times in pure dimethyl sulfoxide, with the final well of each row a dimethyl sulfoxide blank. In an assay plate, 99 μL of appropriate buffer is added to each well, and 1 μL of each sample dilution is added to the buffer, achieving a range of final total concentrations in aqueous solutions having different pH. The buffers used are Simulated Gastric Fluid (SGF-pH 1.5) 0.5M NaCl, pH 1.5; Simulated Intestinal fluid (SIF-pH 4.5 and pH 6.8) 0.05M NaH2PO4, pH 4.5 and 6.8; and Hepes Buffer (HEPES-pH 7.4) 10 mM HEPES, 150 mM NaCl, pH 7.4. Control compounds pyrene, estriol and propranolol HCl are also assessed. Plates are spun and then mixed for 1 minute, and the absorbance is read using a Tecan Safire II to read wavelengths in the visible range (490, 535, and 650 nm) at four locations per well, reflecting the degree of turbidity present. The average optical density for each wavelength in each well is graphed vs. compound concentration, and the concentration at which the curve crosses a threshold O.D. of 0.01 for each wavelength is reported as the endpoint turbidity assay result. The average of the three wavelengths is used to compare turbidity of compounds. Compounds are considered to have low solubility if the threshold concentration is <31.3 μM, moderate solubility if the threshold concentration is 31.3 μM to 250 μM, and high solubility if the threshold concentration is >250 μm.
The following table indicates the relative solubility (L=low, M=moderate, H=high) based on turbidity threshold concentration at each pH for exemplary compounds according to the invention as indicated: […]

The target of another data set is CYP2C19 (Homo sapiens (Human), UniProt P33261). As to the kind of experiment: CYP enzyme inhibition, fluorescent substrate (CEC). To be noted: read-out: Cyp IC50 2C19; CYP2C19, substrate CEC. Here is the method: CYP (Cytochrome P450) enzymes are the major drug metabolizing enzymes present in the liver. The inhibition of CYP enzyme activity (IC50) for each of CYP1A2, CYP2C19, CYP2C9, CYP2D6, CYP3A4(BFC) and CYP3A4(BQ) is determined for compounds, where inhibition of metabolism of a known substrate leads to a decrease in the fluorescence of the metabolized product. The fluorescence of the product is monitored as a function of compound concentration.
Chain of CYP2C19 (P33261 whole entry): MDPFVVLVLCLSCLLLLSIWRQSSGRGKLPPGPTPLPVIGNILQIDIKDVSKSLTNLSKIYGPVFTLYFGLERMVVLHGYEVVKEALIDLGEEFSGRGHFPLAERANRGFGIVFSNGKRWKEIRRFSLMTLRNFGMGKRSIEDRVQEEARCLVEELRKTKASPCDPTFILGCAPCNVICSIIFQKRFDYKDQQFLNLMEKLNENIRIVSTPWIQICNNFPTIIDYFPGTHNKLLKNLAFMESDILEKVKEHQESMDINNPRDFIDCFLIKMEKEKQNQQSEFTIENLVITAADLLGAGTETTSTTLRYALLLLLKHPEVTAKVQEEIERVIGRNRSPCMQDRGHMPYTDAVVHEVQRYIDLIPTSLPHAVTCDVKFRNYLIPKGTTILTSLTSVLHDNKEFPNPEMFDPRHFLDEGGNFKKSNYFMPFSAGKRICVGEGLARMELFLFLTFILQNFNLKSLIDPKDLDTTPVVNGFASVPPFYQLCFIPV
Compounds are dissolved in dimethyl sulfoxide to a concentration of 100 mM. These are diluted 1 μL into 82 μL of acetonitrile. […] These are then serially diluted 1:1 (160 μL to 160 μL co-factor mix) for a total of 10 points. A 10 μL aliquot of this final mixture is dispensed into 384 well assay plates and incubated for 10 minutes at 37° C. […] Assay plates are incubated at 37° C. […] The signal versus compound concentration is used to determine the IC50. The enzymes and substrates for this assay are obtained from BD Biosciences.

Consider ten compounds from US9617267B2, “Compounds and methods for kinase modulation, and indications therefor” (Plexxikon Inc., priority 2009, dated 2017).

Each structure is given as a SMILES string. Some results are limits rather than exact numbers.

Chain of B-Raf V600E (P15056 whole entry V600E): as the sequence (P15056 whole entry) above, with V600E counted along it
Chain of c-Raf-1 (P04049 whole entry, looked up): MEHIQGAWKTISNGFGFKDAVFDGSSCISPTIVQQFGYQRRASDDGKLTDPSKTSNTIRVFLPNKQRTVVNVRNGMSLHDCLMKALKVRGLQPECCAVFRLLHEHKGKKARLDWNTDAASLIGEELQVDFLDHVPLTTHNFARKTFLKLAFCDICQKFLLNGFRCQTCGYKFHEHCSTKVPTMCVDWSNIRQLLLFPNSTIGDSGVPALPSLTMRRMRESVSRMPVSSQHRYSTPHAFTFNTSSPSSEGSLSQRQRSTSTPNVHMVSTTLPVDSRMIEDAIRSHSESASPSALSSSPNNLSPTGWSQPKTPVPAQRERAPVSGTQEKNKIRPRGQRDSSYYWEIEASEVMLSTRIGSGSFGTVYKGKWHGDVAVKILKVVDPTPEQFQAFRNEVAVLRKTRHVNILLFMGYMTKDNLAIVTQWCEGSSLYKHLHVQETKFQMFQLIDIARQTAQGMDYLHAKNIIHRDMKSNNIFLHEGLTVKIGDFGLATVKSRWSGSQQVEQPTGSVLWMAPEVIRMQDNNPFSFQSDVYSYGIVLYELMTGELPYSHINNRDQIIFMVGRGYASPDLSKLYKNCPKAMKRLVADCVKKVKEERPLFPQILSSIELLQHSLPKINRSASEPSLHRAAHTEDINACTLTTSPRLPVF

`O=C(c1c(F)ccc(NS(=O)(=O)c2ccc(C(F)(F)F)cc2)c1F)c1c[nH]c2ncnc(N3CCOCC3)c12` [P-1017, N-[2,4-Difluoro-3-(4-morpholin-4-yl-7H-pyrrolo[2,3-d]pyrimidine-5-carbonyl)-phenyl]-4-trifluoromethyl-benzenesulfonamide]: on B-Raf [1], the concentration for half-maximal inhibition (IC50) (as a rule, the concentration needed to halve the response being measured) was above 0.1 µM. For the same compound, in the data set on B-Raf [2], the “Biochemical activity ratio B/V600E” value is 0.1-10 and the “Biochemical activity ratio B/C” value is reported as 0.1-10. For the same compound, at B-Raf V600E, the IC50 was above 0.1 µM and the “Biochemical activity ratio V600E/C” value is recorded as above 10. Also, the half-maximal inhibitory concentration (IC50) at c-Raf-1 was above 0.1 µM.

Turning to `COc1ccc(S(=O)(=O)Nc2ccc(F)c(C(=O)c3c[nH]c4ncnc(OC)c34)c2F)cn1` [P-1018, 6-Methoxy-pyridine-3-sulfonic acid [2,4-difluoro-3-(4-methoxy-7H-pyrrolo[2,3-d]pyrimidine-5-carbonyl)-phenyl]-amide], the IC50 against B-Raf [1] was above 0.1 µM. Besides, in the data set on B-Raf [2], the “Biochemical activity ratio B/V600E” value was above 10 and the “Biochemical activity ratio B/C” value is reported as above 10. At B-Raf V600E, the IC50 is above 0.1 µM and the “Biochemical activity ratio V600E/C” value is 0.1-10. At c-Raf-1, this compound yielded an IC50 above 0.1 µM.

For `CCc1ccc(S(=O)(=O)Nc2ccc(F)c(C(=O)c3c[nH]c4ncnc(C)c34)c2F)cc1` [P-1019, N-[2,4-Difluoro-3-(4-methyl-7H-pyrrolo[2,3-d]pyrimidine-5-carbonyl)-phenyl]-4-ethyl-benzenesulfonamide], on B-Raf [1], the IC50 is above 0.1 µM. In the data set on B-Raf [2], the “Biochemical activity ratio B/V600E” value was 0.1-10 and the “Biochemical activity ratio B/C” value is on record as 0.1-10. Further, on B-Raf V600E, the half-maximal inhibitory concentration (IC50) was above 0.1 µM and the “Biochemical activity ratio V600E/C” value was 0.1-10. At c-Raf-1, the IC50 is above 0.1 µM.

As to `O=C(c1c(F)ccc(NS(=O)(=O)c2ccc(C(F)(F)F)cc2)c1F)c1c[nH]c2ncnc(OC3CCOCC3)c12` [P-1021, N-{2,4-Difluoro-3-[4-(tetrahydro-pyran-4-yloxy)-7H-pyrrolo[2,3-d]pyrimidine-5-carbonyl]-phenyl}-4-trifluoromethyl-benzenesulfonamide], the IC50 against B-Raf [1] was above 0.1 µM; at B-Raf V600E, above 0.1 µM; at c-Raf-1, below 0.1 µM. The “Biochemical activity ratio B/V600E” value in the data set with B-Raf [2] was 0.1-10. Besides, the “Biochemical activity ratio B/C” value in the data set with B-Raf [2] was above 10. Also, the “Biochemical activity ratio V600E/C” value on B-Raf V600E was above 10.

As for `CCCS(=O)(=O)Nc1ccc(F)c(C(=O)c2c[nH]c3ncnc(O)c23)c1F` [P-1022, Propane-1-sulfonic acid [2,4-difluoro-3-(4-hydroxy-7H-pyrrolo[2,3-d]pyrimidine-5-carbonyl)-phenyl]-amide], the IC50 against B-Raf [1] was above 0.1 µM. In the data set on B-Raf [2], the “Biochemical activity ratio B/V600E” value is on record as 0.1-10 and the “Biochemical activity ratio B/C” value is listed as 0.1-10. At B-Raf V600E, the half-inhibitory concentration (IC50) is above 0.1 µM and the “Biochemical activity ratio V600E/C” value is on record as 0.1-10. This compound also gave an IC50 on c-Raf-1 below 0.1 µM.

The compound `N#Cc1ncnc2[nH]cc(C(=O)c3c(F)ccc(NS(=O)(=O)c4ccc(C(F)(F)F)cc4)c3F)c12` [P-1023, N-[3-(4-Cyano-7H-pyrrolo[2,3-d]pyrimidine-5-carbonyl)-2,4-difluoro-phenyl]-4-trifluoromethyl-benzenesulfonamide] yielded a 50% inhibitory concentration (IC50) against B-Raf [1] above 0.1 µM. Moreover, in the data set with B-Raf [2], the “Biochemical activity ratio B/V600E” value is 0.1-10 and the “Biochemical activity ratio B/C” value is 0.1-10. Moreover, at B-Raf V600E, the IC50 is above 0.1 µM and the “Biochemical activity ratio V600E/C” value is given as above 10. On c-Raf-1, this compound displayed an IC50 above 0.1 µM.

As to `CCCS(=O)(=O)Nc1ccc(F)c(C(=O)c2c[nH]c3ncnc(Nc4cnn(CC)c4)c23)c1F` [P-1099, Propane-1-sulfonic acid {3-[4-(1-ethyl-1H-pyrazol-4-ylamino)-7H-pyrrolo[2,3-d]pyrimidine-5-carbonyl]-2,4-difluoro-phenyl}-amide], in data set [3], the “turbidity threshold (L, M, H) 1.4” value is on record as “M (moderate solubility if the threshold concentration is 31.3 μM to 250 μM)”; the “turbidity threshold (L, M, H) 4.5” value is “L (low solubility if the threshold concentration is <31.3 μM)”; the “turbidity threshold (L, M, H) 6.8” value is “M (moderate solubility if the threshold concentration is 31.3 μM to 250 μM)”; the “turbidity threshold (L, M, H) 7.4” value is “M (moderate solubility if the threshold concentration is 31.3 μM to 250 μM)”.

In the case of `Cc1nn(C)cc1Nc1ncnc2[nH]cc(C(=O)c3c(F)ccc(NS(=O)(=O)c4cc(F)ccc4F)c3F)c12` [P-1143, N-{3-[4-(1,3-Dimethyl-1H-pyrazol-4-ylamino)-7H-pyrrolo[2,3-d]pyrimidine-5-carbonyl]-2,4-difluoro-phenyl}-2,5-difluoro-benzenesulfonamide], in data set [3], the “turbidity threshold (L, M, H) 1.4” value is listed as “L (low solubility if the threshold concentration is <31.3 μM)”; the “turbidity threshold (L, M, H) 4.5” value is “L (low solubility if the threshold concentration is <31.3 μM)”; the “turbidity threshold (L, M, H) 6.8” value is reported as “L (low solubility if the threshold concentration is <31.3 μM)”; the “turbidity threshold (L, M, H) 7.4” value is given as “L (low solubility if the threshold concentration is <31.3 μM)”.

In turn, `CCCS(=O)(=O)Nc1ccc(F)c(C(=O)c2c[nH]c3nccc(NC4CCOCC4)c23)c1F` [P-2013, Propane-1-sulfonic acid {2,4-difluoro-3-[4-(tetrahydro-pyran-4-ylamino)-1H-pyrrolo[2,3-b]pyridine-3-carbonyl]-phenyl}-amide] gave an IC50 on B-Raf V600E below 0.1 µM. The IC50 against c-Raf-1 was below 0.1 µM. For the same compound, in data set [3], the “turbidity threshold (L, M, H) 1.4” value is on record as “H (high solubility if the threshold concentration is >250 μm)”; the “turbidity threshold (L, M, H) 4.5” value is on record as “H (high solubility if the threshold concentration is >250 μm)”; the “turbidity threshold (L, M, H) 6.8” value was “H (high solubility if the threshold concentration is >250 μm)”; the “turbidity threshold (L, M, H) 7.4” value is recorded as “H (high solubility if the threshold concentration is >250 μm)”. For the same compound, the IC50 at CYP2C19 is above 10000 nM.

Regarding `CCCS(=O)(=O)Nc1ccc(F)c(C(=O)c2c[nH]c3nccc(C(F)(F)F)c23)c1F` [P-2015, Propane-1-sulfonic acid [2,4-difluoro-3-(4-trifluoromethyl-1H-pyrrolo[2,3-b]pyridine-3-carbonyl)-phenyl]-amide], on c-Raf-1, the IC50 was below 0.1 µM. Also, in data set [3], the “turbidity threshold (L, M, H) 1.4” value is “M (moderate solubility if the threshold concentration is 31.3 μM to 250 μM)”; the “turbidity threshold (L, M, H) 4.5” value is reported as “M (moderate solubility if the threshold concentration is 31.3 μM to 250 μM)”; the “turbidity threshold (L, M, H) 6.8” value is reported as “M (moderate solubility if the threshold concentration is 31.3 μM to 250 μM)”; the “turbidity threshold (L, M, H) 7.4” value is “M (moderate solubility if the threshold concentration is 31.3 μM to 250 μM)”. The IC50 at CYP2C19 was above 10000 nM.
